The supplement of paper PMC11208160

Assay: recombinant barcode read abundance after kanamycin selection (control-corrected) (log10(CPM+1)); higher = more efficient recombination; sequences stand for … in AGTGCAGAGAAAATCGGCCAGTTTTCTCTGCCTGCAGTCCGCATGCCGT…ATTTATGCAGCGGACTGCCTTTCTCCCAAAGTGATAAACCGGACAGTATCATGGACCGGTTTTCCCGGTAATCCGTATTTGCAAGGTTGGTTTCACT; site = the 11-nt target
Description: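 Same pooled E. coli target screen (IS621 bridge recombinase, kanamycin selection, control-corrected CPM, mean of 2 biological replicates). Here the two core-binding nucleotides of the LTG and RTG of the bridge RNA target-binding loop are mutated. Target and donor CT cores are held constant, and the other 9 guide positions match the target. The target is read from the library oligo sequence. Molecule = full bridge RNA written as DNA: nt 1-80 from the library oligo, rest WT scaffold.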

Sequence | recombinant barcode read abundance (log10)
AGGAGGTACTGGGTTCTAACCTGTTGCCTAG [AGGAGGTCTAG_LTGcore_AC_RTGcore_CT] (site AGGAGGTCTAG) (LTG core: AC, RTG core: CT) | 0.105
AGGAGGTCTTGGGTTCTAACCTGTTGCCTAA [AGGAGGTCTAG_LTGcore_CT_RTGcore_TT] (site AGGAGGTCTAG) (LTG core: CT, RTG core: TT) | 0.203
AGGAGGTCTTGGGTTCTAACCTGTTGCCTAG [AGGAGGTCTAG_LTGcore_CT_RTGcore_CT] (site AGGAGGTCTAG) (LTG core: CT, RTG core: CT) | 1.59
AGGAGGTCTTGGGTTCTAACCTGTTGCCTAT [AGGAGGTCTAG_LTGcore_CT_RTGcore_AT] (site AGGAGGTCTAG) (LTG core: CT, RTG core: AT) | 0.407
AGGAGGTCTTGGGTTCTAACCTGTTGCCTCA [AGGAGGTCTAG_LTGcore_CT_RTGcore_TG] (site AGGAGGTCTAG) (LTG core: CT, RTG core: TG) | 0.322
AGGAGGTCTTGGGTTCTAACCTGTTGCCTCG [AGGAGGTCTAG_LTGcore_CT_RTGcore_CG] (site AGGAGGTCTAG) (LTG core: CT, RTG core: CG) | 0.386
AGGAGGTCTTGGGTTCTAACCTGTTGCCTGT [AGGAGGTCTAG_LTGcore_CT_RTGcore_AC] (site AGGAGGTCTAG) (LTG core: CT, RTG core: AC) | 0.126
AGGAGGTTCTGGGTTCTAACCTGTTGCCTGA [AGGAGGTCTAG_LTGcore_TC_RTGcore_TC] (site AGGAGGTCTAG) (LTG core: TC, RTG core: TC) | 0.0288
AGGCCTCAATGGGTTCTAACCTGTTGCCTTT [AGGCCTCCTAG_LTGcore_AA_RTGcore_AA] (site AGGCCTCCTAG) (LTG core: AA, RTG core: AA) | 0.0414
AGGCCTCACTGGGTTCTAACCTGTTGCCTAG [AGGCCTCCTAG_LTGcore_AC_RTGcore_CT] (site AGGCCTCCTAG) (LTG core: AC, RTG core: CT) | 0.134
AGGCCTCAGTGGGTTCTAACCTGTTGCCTCT [AGGCCTCCTAG_LTGcore_AG_RTGcore_AG] (site AGGCCTCCTAG) (LTG core: AG, RTG core: AG) | 0.182
AGGCCTCCCTGGGTTCTAACCTGTTGCCTAG [AGGCCTCCTAG_LTGcore_CC_RTGcore_CT] (site AGGCCTCCTAG) (LTG core: CC, RTG core: CT) | 0.293
AGGCCTCCTTGGGTTCTAACCTGTTGCCTCA [AGGCCTCCTAG_LTGcore_CT_RTGcore_TG] (site AGGCCTCCTAG) (LTG core: CT, RTG core: TG) | 0.154
AGGCCTCCTTGGGTTCTAACCTGTTGCCTGC [AGGCCTCCTAG_LTGcore_CT_RTGcore_GC] (site AGGCCTCCTAG) (LTG core: CT, RTG core: GC) | 0.112
AGGCCTCCTTGGGTTCTAACCTGTTGCCTGG [AGGCCTCCTAG_LTGcore_CT_RTGcore_CC] (site AGGCCTCCTAG) (LTG core: CT, RTG core: CC) | 0.337
AGGCCTCCTTGGGTTCTAACCTGTTGCCTTG [AGGCCTCCTAG_LTGcore_CT_RTGcore_CA] (site AGGCCTCCTAG) (LTG core: CT, RTG core: CA) | 0.722
AGGCCTCGGTGGGTTCTAACCTGTTGCCTCC [AGGCCTCCTAG_LTGcore_GG_RTGcore_GG] (site AGGCCTCCTAG) (LTG core: GG, RTG core: GG) | 0.0521
AGGCCTCTCTGGGTTCTAACCTGTTGCCTGA [AGGCCTCCTAG_LTGcore_TC_RTGcore_TC] (site AGGCCTCCTAG) (LTG core: TC, RTG core: TC) | 0.047
AGGCCTCTTTGGGTTCTAACCTGTTGCCTAA [AGGCCTCCTAG_LTGcore_TT_RTGcore_TT] (site AGGCCTCCTAG) (LTG core: TT, RTG core: TT) | 0.196
